Where two headings read alike, the source gives them in different places.
Columns and labels:
human 5-HT2A receptor = human 5-HT2A receptor (Homo sapiens (Human), UniProt P28223); test: Radioligand binding assay, [3H]-ketanserin, human 5-HT2A receptor
Summary of the method: (§1)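 Membranes from transiently transfected HEK293 EBNA cells were incubated 1 h at RT with ten compound concentrations (10 μM-0.1 nM) and radioligand: 0.5 nM [3H]-spiperone for D3 (Tris/NaCl/Mg/Ca buffer, pH 7.4) or 1.1 nM [3H]-ketanserin for 5-HT2A (Tris/MgCl2/EGTA, pH 7.4).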

human D2 receptor = human D2 receptor (Homo sapiens (Human), UniProt P14416); test: Radioligand binding assay, [3H]-spiperone, human D2 receptor; conditions: membranes of HEK293 EBNA cells expressing human D2; 0.7 nM [3H]-spiperone
human D2 receptor, sequence (P14416 whole entry): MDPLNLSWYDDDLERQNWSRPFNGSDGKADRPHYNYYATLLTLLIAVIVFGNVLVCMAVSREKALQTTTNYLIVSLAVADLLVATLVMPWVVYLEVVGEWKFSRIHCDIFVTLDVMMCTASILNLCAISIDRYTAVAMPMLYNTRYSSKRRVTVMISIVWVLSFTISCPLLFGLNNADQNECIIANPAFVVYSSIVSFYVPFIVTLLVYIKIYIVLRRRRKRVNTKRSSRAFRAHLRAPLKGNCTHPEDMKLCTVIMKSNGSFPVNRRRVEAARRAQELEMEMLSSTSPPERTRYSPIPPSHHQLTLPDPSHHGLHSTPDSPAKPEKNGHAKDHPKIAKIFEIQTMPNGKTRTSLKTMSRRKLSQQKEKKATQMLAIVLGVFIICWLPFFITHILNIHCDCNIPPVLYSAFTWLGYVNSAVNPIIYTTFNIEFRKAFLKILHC
Summary of the method: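 Membranes from HEK293 EBNA cells transiently expressing human D2 were incubated 1 h at RT with ~0.7 nM [3H]-spiperone and ten compound concentrations (10 μM–0.1 nM) in Tris buffer with NaCl, MgCl2, KCl, CaCl2, EDTA, pH 7.4.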

human D3 receptor = human D3 receptor (Homo sapiens (Human), UniProt P35462); test: Radioligand binding assay, [3H]-spiperone, human D3 receptor; conditions: membranes of HEK293 EBNA cells expressing human D3; 0.5 nM [3H]-spiperone
human D3 receptor, sequence (P35462 whole entry): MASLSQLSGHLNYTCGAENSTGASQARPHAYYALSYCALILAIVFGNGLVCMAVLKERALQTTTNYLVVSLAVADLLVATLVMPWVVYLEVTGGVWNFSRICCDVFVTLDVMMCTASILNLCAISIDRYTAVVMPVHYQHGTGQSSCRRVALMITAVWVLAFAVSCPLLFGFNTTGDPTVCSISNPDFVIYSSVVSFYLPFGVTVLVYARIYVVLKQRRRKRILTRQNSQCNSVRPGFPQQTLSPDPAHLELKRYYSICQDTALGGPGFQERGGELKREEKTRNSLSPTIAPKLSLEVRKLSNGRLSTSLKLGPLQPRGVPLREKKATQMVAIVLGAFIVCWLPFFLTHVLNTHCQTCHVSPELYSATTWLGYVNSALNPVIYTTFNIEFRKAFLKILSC
Summary of the method: as §1

[1] = membranes of HEK293 EBNA cells expressing human 5-HT2A, 1.1 nM [3H]-ketanserin

human 5-HT2A receptor, sequence (P28223 whole entry): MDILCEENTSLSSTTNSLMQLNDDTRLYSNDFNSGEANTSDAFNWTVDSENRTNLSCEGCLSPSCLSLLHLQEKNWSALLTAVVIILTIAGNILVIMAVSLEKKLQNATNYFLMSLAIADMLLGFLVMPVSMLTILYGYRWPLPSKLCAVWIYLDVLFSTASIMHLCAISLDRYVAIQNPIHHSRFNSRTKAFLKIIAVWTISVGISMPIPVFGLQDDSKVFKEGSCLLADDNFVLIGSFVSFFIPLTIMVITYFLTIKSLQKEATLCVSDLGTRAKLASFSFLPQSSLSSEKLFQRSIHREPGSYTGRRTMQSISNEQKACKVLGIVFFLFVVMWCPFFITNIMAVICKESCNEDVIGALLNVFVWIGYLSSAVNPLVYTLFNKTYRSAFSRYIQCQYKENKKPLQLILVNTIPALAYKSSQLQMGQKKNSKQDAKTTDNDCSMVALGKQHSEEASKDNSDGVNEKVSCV

Compound | melting point | Ki (human 5-HT2A receptor; [1]) | Ki (human D2 receptor) | Ki (human D3 receptor) | Ki (human 5-HT2A receptor)
CS(=O)(=O)c1ccc(C(=O)N[C@H]2CC[C@H](CCN3CCN(c4nccc5c4CCO5)CC3)CC2)s1 [Example 115, 5-Methanesulfonyl-thiophene-2-carboxylic acid trans-(4-{2-[4-(2,3-dihydro-furo[3,2-c]pyridin-4-yl)-piperazin-1-yl]-ethyl}-cyclohexyl)-amide] | 229 °C | 9.46 nM | 516 nM | 33.8 nM | 
N#Cc1ccc(C(=O)N[C@H]2CC[C@H](CCN3CCN(c4nccc5c4CCO5)CC3)CC2)cc1 [Example 117, trans-4-Cyano-N-(4-{2-[4-(2,3-dihydro-furo[3,2-c]pyridin-4-yl)-piperazin-1-yl]-ethyl}-cyclohexyl)-benzamide] | 243.5 °C | 13 nM | 381 nM | 28 nM | 
CN1CCN(c2ccc(C(=O)N[C@H]3CC[C@H](CCN4CCN(c5nccc6c5CCO6)CC4)CC3)cc2)CC1 [Example 118, trans-N-(4-{2-[4-(2,3-Dihydro-furo[3,2-c]pyridin-4-yl)-piperazin-1-yl]-ethyl}-cyclohexyl)-4-(4-methyl-piperazin-1-yl)-benzamide] | 236 °C | 4.51 nM | 180 nM | 14.7 nM | 
O=C(N[C@H]1CC[C@H](CCN2CCN(c3nccc4c3CCO4)CC2)CC1)c1ccc(N2CCOCC2)nc1 [Example 119, trans-N-(4-{2-[4-(2,3-Dihydro-furo[3,2-c]pyridin-4-yl)-piperazin-1-yl]-ethyl}-cyclohexyl)-6-morpholin-4-yl-nicotinamide] | 222 °C |  | 998 nM | 44.7 nM | 15.6 nM
O=C(N[C@H]1CC[C@H](CCN2CCN(c3nccc4c3CCO4)CC2)CC1)c1ccc(-c2cccnc2)cc1 [Example 120, trans-N-(4-{2-[4-(2,3-Dihydro-furo[3,2-c]pyridin-4-yl)-piperazin-1-yl]-ethyl}-cyclohexyl)-4-pyridin-3-yl-benzamide] | 218 °C | 12.3 nM | 223 nM | 16.1 nM | 
O=C(N[C@H]1CC[C@H](CCN2CCN(c3nccc4c3CCO4)CC2)CC1)c1ccc2c(c1)OCO2 [Example 121, Benzo[1,3]dioxole-5-carboxylic acid trans-(4-{2-[4-(2,3-dihydro-furo[3,2-c]pyridin-4-yl)-piperazin-1-yl]-ethyl}-cyclohexyl)-amide] | 243.5 °C | 17.6 nM | 3370 nM | 21.8 nM | 
O=C(Cc1ccc2c(c1)OCO2)N[C@H]1CC[C@H](CCN2CCN(c3nccc4c3CCO4)CC2)CC1 [Example 122, trans-2-Benzo[1,3]dioxol-5-yl-N-(4-{2-[4-(2,3-dihydro-furo[3,2-c]pyridin-4-yl)-piperazin-1-yl]-ethyl}-cyclohexyl)-acetamide] | 212 °C | 33.7 nM | 3040 nM | 18.6 nM | 
O=C(N[C@H]1CC[C@H](CCN2CCN(c3nccc4c3CCO4)CC2)CC1)C1(O)CCC1 [Example 123, 1-Hydroxy-cyclobutanecarboxylic acid trans-(4-{2-[4-(2,3-dihydro-furo[3,2-c]pyridin-4-yl)-piperazin-1-yl]-ethyl}-cyclohexyl)-amide] | 177.5 °C | 9.8 nM | 959 nM | 131 nM | 
O=C(N[C@H]1CC[C@H](CCN2CCN(c3nccc4c3CCO4)CC2)CC1)c1ccc(N2CCS(=O)(=O)CC2)cc1 [Example 125, trans-N-(4-{2-[4-(2,3-Dihydro-furo[3,2-c]pyridin-4-yl)-piperazin-1-yl]-ethyl}-cyclohexyl)-4-(1,1-dioxo-1λ6-thiomorpholin-4-yl)-benzamide] | 261.5 °C | 16.6 nM | 117 nM | 14.4 nM | 
O=C(N[C@H]1CC[C@H](CCN2CCN(c3nccc4c3CCO4)CC2)CC1)c1ccc(-n2cccn2)cc1 [Example 126, trans-N-(4-{2-[4-(2,3-Dihydro-furo[3,2-c]pyridin-4-yl)-piperazin-1-yl]-ethyl}-cyclohexyl)-4-pyrazol-1-yl-benzamide] | 229 °C | 35.9 nM | 478 nM | 44.3 nM | 
Cc1nc(-c2cccc(C(=O)N[C@H]3CC[C@H](CCN4CCN(c5nccc6c5CCO6)CC4)CC3)c2)no1 [Example 127, trans-N-(4-{2-[4-(2,3-Dihydro-furo[3,2-c]pyridin-4-yl)-piperazin-1-yl]-ethyl}-cyclohexyl)-3-(5-methyl-[1,2,4]oxadiazol-3-yl)-benzamide] | 218 °C | 48.9 nM | 2150 nM | 19.5 nM | 
O=C(N[C@H]1CC[C@H](CCN2CCN(c3nccc4c3CCO4)CC2)CC1)c1ccc2ncccc2c1 [Example 128, Quinoline-6-carboxylic acid trans-(4-{2-[4-(2,3-dihydro-furo[3,2-c]pyridin-4-yl)-piperazin-1-yl]-ethyl}-cyclohexyl)-amide] | 227 °C | 23.2 nM | 501 nM | 20.5 nM | 
O=C(Cc1noc2ccccc12)N[C@H]1CC[C@H](CCN2CCN(c3nccc4c3CCO4)CC2)CC1 [Example 129, trans-2-Benzo[d] isoxazol-3-yl-N-(4-{2-[4-(2,3-dihydro-furo[3,2-c]pyridin-4-yl)-piperazin-1-yl]-ethyl}-cyclohexyl)-acetamide] | 217.5 °C |  | 1310 nM | 14.9 nM | 27.8 nM
O=C(N[C@H]1CC[C@H](CCN2CCN(c3nccc4c3CCO4)CC2)CC1)c1cnc(N2CCOCC2)cn1 [Example 130, 5-Morpholin-4-yl-pyrazine-2-carboxylic acid trans-(4-{2-[4-(2,3-dihydro-furo[3,2-c]pyridin-4-yl)-piperazin-1-yl]-ethyl}-cyclohexyl)-amide] | 192.5 °C | 18.4 nM | 506 nM | 119 nM | 
CC(C)(C)c1ccc(C(=O)N[C@H]2CC[C@H](CCN3CCN(c4nccc5c4CCO5)CC3)CC2)cc1 [Example 131, trans-4-tert-Butyl-N-(4-{2-[4-(2,3-dihydro-furo[3,2-c]pyridin-4-yl)-piperazin-1-yl]-ethyl}-cyclohexyl)-benzamide] | 186.5 °C |  | 1660 nM | 147 nM | 66.7 nM
O=C(N[C@H]1CC[C@H](CCN2CCN(c3nccc4c3CCO4)CC2)CC1)c1ccc(-n2cccc2)cc1 [Example 133, trans-N-(4-{2-[4-(2,3-Dihydro-furo[3,2-c]pyridin-4-yl)-piperazin-1-yl]-ethyl}-cyclohexyl)-4-pyrrol-1-yl-benzamide] | 234 °C | 24.2 nM | 163 nM | 24.4 nM | 
O=C(N[C@H]1CC[C@H](CCN2CCN(c3nccc4c3CCO4)CC2)CC1)c1ccc(-c2ccccc2)cc1 [Example 134, Biphenyl-4-carboxylic acid trans-(4-{2-[4-(2,3-dihydro-furo[3,2-c]pyridin-4-yl)-piperazin-1-yl]-ethyl}-cyclohexyl)-amide] | 232 °C | 23.4 nM | 1130 nM | 18.6 nM | 
CO[C@H](C)C(=O)N[C@H]1CC[C@H](CCN2CCN(c3nccc4c3CCO4)CC2)CC1 [Example 135, trans-(R)—N-(4-{2-[4-(2,3-Dihydro-furo[3,2-c]pyridin-4-yl)-piperazin-1-yl]-ethyl}-cyclohexyl)-2-methoxy-propionamide] | 159 °C | 7 nM | 680 nM | 109 nM | 
CC(C)(C)Oc1ccc(C(=O)N[C@H]2CC[C@H](CCN3CCN(c4nccc5c4CCO5)CC3)CC2)cc1 [Example 136, trans-4-tert-Butoxy-N-(4-{2-[4-(2,3-dihydro-furo[3,2-c]pyridin-4-yl)-piperazin-1-yl]-ethyl}-cyclohexyl)-benzamide] | 200 °C | 41.4 nM | 3160 nM | 69.5 nM | 
CO[C@@H](C)C(=O)N[C@H]1CC[C@H](CCN2CCN(c3nccc4c3CCO4)CC2)CC1 [Example 137, trans-(S)—N-(4-{2-[4-(2,3-Dihydro-furo[3,2-c]pyridin-4-yl)-piperazin-1-yl]-ethyl}-cyclohexyl)-2-methoxy-propionamide] | 158.5 °C | 20.1 nM | 788 nM | 252 nM | 
O=S(=O)(N[C@H]1CC[C@H](CCN2CCN(c3nccc4c3CCO4)CC2)CC1)c1ccccc1 [Example 138, trans-N-(4-{2-[4-(2,3-Dihydro-furo[3,2-c]pyridin-4-yl)-piperazin-1-yl]-ethyl}-cyclohexyl)-benzenesulfonamide] | 168.5 °C | 70.5 nM | 243 nM | 15.5 nM | 
COC(C)CC(=O)N[C@H]1CC[C@H](CCN2CCN(c3nccc4c3CCO4)CC2)CC1 (stereo partly drawn) [Example 139, trans-N-(4-{2-[4-(2,3-Dihydro-furo[3,2-c]pyridin-4-yl)-piperazin-1-yl]-ethyl}-cyclohexyl)-3-methoxy-butyramide] | 167 °C |  | 801 nM | 40.6 nM | 30.4 nM
CC[C@@H](O)CC(=O)N[C@H]1CC[C@H](CCN2CCN(c3nccc4c3CCO4)CC2)CC1 [Example 140, (R)-3-Hydroxy-pentanoic acid trans-(4-{2-[4-(2,3-dihydro-furo[3,2-c]pyridin-4-yl)-piperazin-1-yl]-ethyl}-cyclohexyl)-amide] | 161 °C |  | 843 nM | 44.4 nM | 42 nM

— patent publication US8586579B2, “Anellated pyridine compounds” (Hoffmann-La Roche Inc., priority 2010, dated 2013)
